Series [1] has as its system isoproterenol-induced tachycardia. Description: β-sympatholytic action in cats: inhibition of isoproterenol-induced tachycardia. Conditions: for ED (50-60%): Felis catus, hexobarbital narcosis; for ED (50-60%) / factor by which the dose required for 50-60% inhibition is lower than the corresponding dose of propranolol, intraduodenal / % inhibition of isoproterenol-induced tachycardia, intraduodenal administration / factor by which the dose required is lowered compared with propranolol, intravenous / % inhibition of isoproterenol-induced tachycardia, intravenous administration: cats; for factor by which the dose required for 50-60% inhibition is lower than the corresponding dose of propranolol, intraduodenal: enteral (intraduodenal) administration; for factor by which the dose required for 50-60% inhibition is lower than the corresponding dose of propranolol, intraduodenal / factor by which the dose required is lowered compared with propranolol, intravenous: vs propranolol; for % inhibition of isoproterenol-induced tachycardia, intraduodenal administration: at the mg/kg dose of the same line (E3); for factor by which the dose required is lowered compared with propranolol, intravenous: intravenous administration; for % inhibition of isoproterenol-induced tachycardia, intravenous administration: at the mg/kg dose of the same line (E1). The class given is in vivo, cat (male and female, mongrels). Here is the method:
(§1) The β-sympatholytic action was tested on cats and dogs. The comparative compound used was the conventional β-sympatholytic agent propranolol. The isoproterenol-induced tachycardia model was used for the test.
Isoproterenol (1 μg/kg, administered intravenously) produces increases in heart rate averaging 61±2.4 beats/min. in cats (male and female, mongrels, weighing 1.7 to 4.0 kg) narcotized with hexobarbital (200 mg/kg administered intramuscularly). β-Sympatholytic agents inhibit this tachycardia. Isoproterenol was injected before, and 10 minutes after, the intravenous administration, or 30 minutes after the intraduodenal administration, of the test substances. The doses which inhibit the isoproterenol-induced tachycardia by 50-60% were determined.

The test system is the same in series [2]. Put plainly: β-sympatholytic action in conscious dogs: inhibition of isoproterenol-induced tachycardia. The class given is in vivo, dog. The conditions noted are these: for ED50: Canis lupus familiaris, 10 min, read-out: ED 50% (dose which inhibits the isoproterenol-induced tachycardia by 50%). Here is the method:
as §1
Isoproterenol was administered before and 10 minutes after the intravenous administration of the test substances.

Series [3] is described as follows: acute toxicity, intraperitoneal administration to mice. Details: species or system mouse (NMRI, female). The conditions noted are these: mouse, in vivo, ip, Probit analysis.
[4] abbreviates: 10 min, intravenous, isoproterenol 1 μg/kg i.v. 10 minutes after test substance, read-out: dose inhibiting isoproterenol-induced tachycardia by 50-60%, intravenous administration.
Setting [5] is: 0.5 h, intraduodenal, isoproterenol 1 μg/kg i.v. 30 minutes after test substance, read-out: dose inhibiting isoproterenol-induced tachycardia by 50-60%, intraduodenal administration.

The structures appear in SMILES notation. Counter-ions that a name gives are not always drawn. Like-named read-outs stand apart in the source and are kept apart here.

Broadly, the LD50 is the dose at which mortality reaches 50%. The low end stands for greater toxicity, the high end for lower toxicity.

`CC(C)NCC(O)COc1cccc2c1CCCC(=O)N2` (centres unmarked) [Example 1, 6-(2-hydroxy-3-isopropylaminopropoxy)-2,3,4,5-tetrahydro-1H-1-benzazepin-2-one]: the ED (50-60%) in series [1] (setting [4]) is 0.215 mg/kg. For the same compound, in series [1] (setting [5]), the ED (50-60%) came to 0.464 mg/kg. Further, in series [1], the “factor by which the dose required for 50-60% inhibition is lower than the corresponding dose of propranolol, intraduodenal” value came to 2 and the “factor by which the dose required is lowered compared with propranolol, intravenous” value is on record as 2. Also, the “% inhibition of isoproterenol-induced tachycardia, intraduodenal administration” value (“% inhibition … intraduodenal administration” for short) in series [1] (intraduodenal) is recorded as 56%. For the same compound, in series [1] (intravenous), the “% inhibition of isoproterenol-induced tachycardia, intravenous administration” value (“% inhibition … intravenous administration” below) is on record as 59%.

For `CC(C)(C)NCC(O)COc1cccc2c1CCCC(=O)N2` (centres unmarked) [Example 2, 6-(2-hydroxy-3-tert.-butylaminopropoxy)-2,3,4,5-tetrahydro-1H-1-benzazepin-2-one hydrochloride], in series [2] (conscious dogs, intravenous, isoproterenol 1 μg/kg i.v.), the ED50 worked out at 0.0043 mg/kg. Also, in series [2] (conscious dogs, intravenous, vs propranolol), the “times as active as propranolol (ED 50%)” value came out at 24 times. For the same compound, the ED (50-60%) in series [1] (setting [4]) came to 0.0215 mg/kg. In addition, the ED (50-60%) in series [1] (setting [5]) was 0.215 mg/kg. In addition, in series [1], the “factor by which the dose required for 50-60% inhibition is lower than the corresponding dose of propranolol, intraduodenal” value was found to be 4.7 and the “factor by which the dose required is lowered compared with propranolol, intravenous” value worked out at 4.7. In addition, the “% inhibition … intraduodenal administration” value in series [1] (intraduodenal) was found to be 52%. Further, the “% inhibition … intravenous administration” value in series [1] (intravenous) was 57%. This compound also displayed an LD50 at 24 h in series [3] of 237 mg/kg.

In the case of `CC(C)NCC(O)c1ccc(O)c(O)c1` (centres unmarked) [Isoproterenol, reference compound], the “increase in heart rate caused by isoproterenol” value in series [2] (conscious dogs, 1 μg/kg intravenously) is given as “about 100 beats/min”. Besides, the “increase in heart rate produced by isoproterenol” value in series [1] (cats narcotized with hexobarbital, 1 μg/kg intravenously) came out at 61±2.4 beats/min.

On to `CC(C)NCC(O)COc1cccc2ccccc12` (centres unmarked) [Propranolol, reference compound], for which the ED50 in series [2] (iv) was 0.1 mg/kg. In addition, the “% inhibition … intraduodenal administration” value in series [1] (intraduodenal) amounted to 57%. In addition, the “% inhibition … intravenous administration” value in series [1] (intravenous) is reported as 52%.

For the origin of these results see patent publication US4340595A, “Aminopropanol derivatives of 6-hydroxy-2,3,4,5-tetrahydro-1H-1-benzazepin-2-one and pharmaceutical formulations containing the said compounds” (BASF Aktiengesellschaft, priority 1978, dated 1982).
